# Results reported in patent US20150182487A1, “COMPOSITION FOR PREVENTING AND TREATING INFLAMMATORY DISEASES AND IMMUNE DISEASES, CONTAINING APO-9`-FUCOXANTHINONE AS ACTIVE INGREDIENT” (JEJU NATIONAL UNIVERSITY INDUSTRY ACADEMIC COOPERATION …, priority 2012, published 2015).
# Legend:
# [1] = test system: IL-12 p40, IL-6, and TNF-α; test: ELISA of pro-inflammatory cytokine production in CpG-ODN-stimulated bone marrow-derived macrophage; format: cell-based, mouse; conditions: compound 5, 10, 20, 50 μM for 1 hour before CpG-ODN (1 μM), FIG. 4
# Description: (§1) Bone marrow-derived dendritic cells (BMDC) and macrophage (BMDM) were obtained from a wild-type C57BL/6 mouse. To be brief, bone marrow cells were obtained by flushing a tibia and femur of the mouse with DMEM (Dulbecco's modified Eagles medium). The cells were cultured in a medium RPMI 1640 including 10% heat-inactivated FBS (Gibco, NY, U.S.A.), 50 μM of β-mercapto ethanol, and 2 mM glutamine and supplemented with 3% hybridoma cell culture supernatant J558L containing granulocyte-macrophage colony-stimulating factor (GM-CSF) for BMDCs.
# Further, the obtained bone marrow cells were cultured in a DMEM including 20% heat-inactivated FBS, a 30% L929 cell culture supernatant containing a macrophage colony-stimulating factor, and 1% penicillin-streptomycin for BMDMs.
# (§2) In order to check whether the Sargassum muticum extracts obtained in the present invention has an anti-inflammatory and an immunomodulatory activity, the following experiments were conducted with the Sargassum muticum extracts obtained in Example <1-1>. That is, bone marrow-derived macrophage and dendritic cells cultured as described above were seeded at 1×10^5 cells/0.5 ml in a 48-well plate. […] Supernatants were harvested 18 hour after stimulation. Amounts of IL-12 p40, IL-6, and TNF-α were measured using ELISA (BD PharMingen, CA, USA and R&D system, MN, USA). […]
# [2] = test system: IL-12 p40, IL-6, and TNF-α; test: ELISA of pro-inflammatory cytokine production in CpG-ODN-stimulated bone marrow-derived dendritic cells; format: cell-based, mouse; conditions: compound 5, 10, 20, 50 μM for 1 hour before CpG-ODN (1 μM), FIG. 5
# Description: as §1
# as §2, with “USA). At this time, a non-treated group, a group treated with the extracts only, and a group treated with CpG-ODN only without treatment with the extracts were used as a control group.” for “USA).”
# ERK1/2 (ERK p44/p42) = test: Western blot of MAPK phosphorylation in CpG-ODN-stimulated macrophages; format: cell-based, mouse; conditions: macrophages pre-treated at 20 μM for 1 hour before CpG-ODN; FIG. 6A
# Description: (§3) In order to check whether the apo-9′-fucoxanthinone compound has an effect on activities of MAPK and NF-κB that are upstream signal transduction pathways for pro-inflammatory cytokine production, a Western blot analysis was conducted as follows. That is, the macrophages were dispensed to 60-mm culture dishes at 4×10^6 cells per dish, and then cultured for 24 hours at 37° C. The cells were pre-treated with the apo-9′-fucoxanthinone compound at a concentration of 20 μM for 1 hour before treatment with CpG-ODN. The cells were collected and dissolved using a lysis buffer (PRO-PREP Lysis buffer, iNtRON Biotechnology). Protein samples were electrophoresed in 10%-SDS PAGE, and then electrophoresed in a polyvinylidene fluoride membrane, and then treated and reacted with phospho-p44/42 (P-ERK p44/p42), phospho-p38 (P-p38), p38 MAPK, phospho-SAPK/JNK (P-JNK), phospho-IκBα, and IκBα (Cell Signaling Technology, MA, USA) as 1/1000 diluted primary antibodies. Thereafter, the membrane was washed and treated and reacted with horseradish peroxidase-linked anti-rabbit IgG (Cell Signaling Technology). Then, a signal was checked using a WEST-ZOL plus western blot detection system (iNtRON Biotechnology).
# IκBα = test: Western blot of degradation and phosphorylation of IκBα in CpG-ODN-stimulated macrophages; format: cell-based, mouse; conditions: macrophages pre-treated at 20 μM for 1 hour before CpG-ODN; FIG. 6B
# Description: as §3
# AP-1 = AP-1 reporter luciferase assay in TLR9-transfected HEK293T cells stimulated with CpG-ODN; format: cell-based; conditions: HEK293T cells transfected with murine TLR9-expressing plasmid; pre-treated 1 hour before CpG DNA (1 μM), 18 hour; FIG. 7
# Description: It is known that activation of an MAPK signaling pathway activates a transcriptional factor AP-1, thereby increasing a DNA binding activity of AP-1 and expression of an AP-1-dependent gene. […] Firstly, HEK239T cells were plated in a 24-well plate and cultured overnight. Then, HEK293T cells were transfected with pcDNA3 (empty vector) or pcDNA3-mTLR9 that expresses murine TLR9, with an AP-1 reporter gene and pRLnull (Promega, WI, USA) using a Fugene 6 (Roche, UN, USA). Cells were then further incubated for 24 hour, and then pre-treated with the apo-9′-fucoxanthinone compound at each concentration as described in the above Examples for 1 hour before stimulation with CpG DNA (1 μM). After further incubation for 18 hour, the cells were lysed with a passive lysis buffer (Promega), and then analyzed using a dual luciferase reporter assay system (Promega). All of the experiments were repeated three times, and the results thereof were expressed in the fold increase.
# NLRP3 inflammasome = target: T1, NLRP3 inflammasome (Mus musculus, UniProt Q8R4B8); test: ELISA of IL-1β production induced by ATP in LPS primed BMDMs; format: cell-based; conditions: BMDMs primed with LPS 10 ng/ml 18 hours; compound 6.25, 12.5, 25, 50 μM 1 hour; ATP 5 mM 2 hours; FIG. 9 upper graph
# T1 construct: checked a degree of IL-1β production induced by ATP in LPS primed BMDMs using ELISA; endogenous in cells; host or cells: bone marrow-derived macrophages (BMDM) from wild-type C57BL/6 mouse, LPS-primed and ATP-stimulated
# T1 sequence (Q8R4B8 whole entry): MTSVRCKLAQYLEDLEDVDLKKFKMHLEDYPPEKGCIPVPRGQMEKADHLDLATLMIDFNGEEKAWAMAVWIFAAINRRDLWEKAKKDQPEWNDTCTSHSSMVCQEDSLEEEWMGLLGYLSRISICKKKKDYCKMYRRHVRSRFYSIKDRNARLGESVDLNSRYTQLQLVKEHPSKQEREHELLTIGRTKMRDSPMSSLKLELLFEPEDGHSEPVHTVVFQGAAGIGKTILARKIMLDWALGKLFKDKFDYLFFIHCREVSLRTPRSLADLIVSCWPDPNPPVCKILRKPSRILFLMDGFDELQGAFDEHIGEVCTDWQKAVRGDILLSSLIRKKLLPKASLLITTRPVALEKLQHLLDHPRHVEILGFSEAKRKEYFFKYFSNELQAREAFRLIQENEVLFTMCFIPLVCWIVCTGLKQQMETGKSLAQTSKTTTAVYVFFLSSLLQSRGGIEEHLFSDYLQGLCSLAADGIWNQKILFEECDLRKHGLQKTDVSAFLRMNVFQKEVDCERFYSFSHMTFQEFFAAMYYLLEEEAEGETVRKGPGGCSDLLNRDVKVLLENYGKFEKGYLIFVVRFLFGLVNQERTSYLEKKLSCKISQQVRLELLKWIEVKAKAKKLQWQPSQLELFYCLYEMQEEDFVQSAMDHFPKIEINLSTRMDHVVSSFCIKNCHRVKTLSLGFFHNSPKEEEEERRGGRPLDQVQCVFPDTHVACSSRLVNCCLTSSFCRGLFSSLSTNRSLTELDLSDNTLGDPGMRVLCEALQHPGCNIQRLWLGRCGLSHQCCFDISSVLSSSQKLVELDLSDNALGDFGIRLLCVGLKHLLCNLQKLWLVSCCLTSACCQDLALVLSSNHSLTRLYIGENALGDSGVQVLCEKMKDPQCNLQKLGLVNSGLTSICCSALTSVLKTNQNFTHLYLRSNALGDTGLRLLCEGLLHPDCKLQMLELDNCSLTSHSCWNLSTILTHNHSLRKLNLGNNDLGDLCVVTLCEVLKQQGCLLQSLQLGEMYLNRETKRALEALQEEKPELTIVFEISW
# Description: When LPS primed bone marrow-derived macrophages are treated with ATP, NLPR3 inflammasome is activated, and, thus, IL-1β is secreted. Therefore, in order to check whether the apo-9′-fucoxanthinone compound has an effect of inhibiting the NLRP3 inflammasome, the inventors of the present invention checked a degree of IL-1β production induced by ATP in LPS primed BMDMs using ELISA To do so, the bone marrow-derived macrophages cultured in the same manner as Example 2 were dispensed at 1×10^5 cells/0.5 ml in a 48-well plate, and these cells were treated with LPS at a concentration of 10 ng/ml for 18 hours. Then, the cells were treated with the apo-9′-fucoxanthinone compound at each concentration (0, 6.25, 12.5, 25, and 50 μM) for 1 hour. At 2 hours after treatment with ATP at a concentration of 5 mM, a cell culture medium was obtained and an expression amount of IL-1β was measured using ELISA (R&D system, MN, USA). Further, as a positive control group, a group treated with 10 μM parthenolide (described as “part” in the drawings) known as an NLRP3 inflammasome inhibitor was used.
# [3] = test system: bone marrow-derived macrophages; test: MTT assay of pyroptotic cell death of bone marrow-derived macrophages treated with LPS and ATP; format: cell-based, mouse; conditions: bone marrow-derived macrophages treated with both LPS and ATP; compound 6.25-50 μM; FIG. 9 lower graph
# Description: When LPS primed bone marrow-derived macrophages are treated with ATP, NLPR3 inflammasome is activated, and, thus, IL-1β is secreted. Therefore, in order to check whether the apo-9′-fucoxanthinone compound has an effect of inhibiting the NLRP3 inflammasome, the inventors of the present invention checked a degree of IL-1β production induced by ATP in LPS primed BMDMs using ELISA To do so, the bone marrow-derived macrophages cultured in the same manner as Example 2 were dispensed at 1×10^5 cells/0.5 ml in a 48-well plate, and these cells were treated with LPS at a concentration of 10 ng/ml for 18 hours. Then, the cells were treated with the apo-9′-fucoxanthinone compound at each concentration (0, 6.25, 12.5, 25, and 50 μM) for 1 hour. At 2 hours after treatment with ATP at a concentration of 5 mM, a cell culture medium was obtained and an expression amount of IL-1β was measured using ELISA (R&D system, MN, USA). […]
# That is, the cells treated as described above were treated with 0.2 mg of an MTT reagent and cultured at a temperature of 37° C. for 4 hours. After culture, the cells were collected and formazan crystals in each well were dissolved in 250 μl of DMSO, and then, an absorbance at 540 nm was measured to measure cell viability.
compound,measurement,setting,value
CC(=O)C=C=C1C(C)(C)C[C@H](OC(C)=O)C[C@@]1(C)O [apo-9′-fucoxanthinone],"pro-inflammatory cytokine production (IL-12 p40, IL-6, TNF-α)",[1],effectively inhibiting
same,"pro-inflammatory cytokine production (IL-12 p40, IL-6, TNF-α)",[2],effectively inhibiting
same,phosphorylation of ERK1/2 (ERK p44/p42),ERK1/2 (ERK p44/p42),strongly inhibited
same,degradation and phosphorylation of IκBα,IκBα,did not greatly affect
same,AP-1-dependent luciferase activity,AP-1,decreased in a dose-dependent manner
same,production of IL-1β,NLRP3 inflammasome,effectively inhibited in a dose-dependent manner
same,"pyroptotic cell death (cell viability, MTT)",[3],inhibiting pyroptotic cell death
